Measurements: ChEMBL document CHEMBL3039007, “Structure-based identification of OATP1B1/3 inhibitors” (Mol Pharmacol, 2013)

Legend:
[1] = molecular target: T1, Solute carrier organic anion transporter family member 1B1 (Homo sapiens, UniProt Q9Y6L6); details: chinese hamster, cho, 10 µM
T1 sequence (Q9Y6L6 whole entry): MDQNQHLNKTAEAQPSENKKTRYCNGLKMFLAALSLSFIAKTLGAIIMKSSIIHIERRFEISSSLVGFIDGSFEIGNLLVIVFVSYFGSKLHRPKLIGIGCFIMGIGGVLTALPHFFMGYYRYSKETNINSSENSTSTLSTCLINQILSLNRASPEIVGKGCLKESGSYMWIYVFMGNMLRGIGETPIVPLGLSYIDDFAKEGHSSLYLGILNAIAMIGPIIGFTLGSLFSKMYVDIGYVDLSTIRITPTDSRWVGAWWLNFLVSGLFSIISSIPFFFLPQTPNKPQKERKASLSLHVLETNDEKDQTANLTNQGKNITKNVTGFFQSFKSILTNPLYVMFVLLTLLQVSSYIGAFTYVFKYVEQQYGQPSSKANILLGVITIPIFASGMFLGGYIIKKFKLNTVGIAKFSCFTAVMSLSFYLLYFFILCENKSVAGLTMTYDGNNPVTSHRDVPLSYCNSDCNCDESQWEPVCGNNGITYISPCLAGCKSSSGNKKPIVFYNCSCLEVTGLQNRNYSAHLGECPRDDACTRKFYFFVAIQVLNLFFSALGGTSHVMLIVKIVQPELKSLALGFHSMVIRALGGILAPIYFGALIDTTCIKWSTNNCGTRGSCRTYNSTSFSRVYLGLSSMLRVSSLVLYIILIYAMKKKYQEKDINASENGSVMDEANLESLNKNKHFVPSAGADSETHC

[2] = molecular target: T2, Solute carrier organic anion transporter family member 1B3 (Homo sapiens, UniProt Q9NPD5); details: chinese hamster, cho, 10 µM
T2 sequence (Q9NPD5 whole entry): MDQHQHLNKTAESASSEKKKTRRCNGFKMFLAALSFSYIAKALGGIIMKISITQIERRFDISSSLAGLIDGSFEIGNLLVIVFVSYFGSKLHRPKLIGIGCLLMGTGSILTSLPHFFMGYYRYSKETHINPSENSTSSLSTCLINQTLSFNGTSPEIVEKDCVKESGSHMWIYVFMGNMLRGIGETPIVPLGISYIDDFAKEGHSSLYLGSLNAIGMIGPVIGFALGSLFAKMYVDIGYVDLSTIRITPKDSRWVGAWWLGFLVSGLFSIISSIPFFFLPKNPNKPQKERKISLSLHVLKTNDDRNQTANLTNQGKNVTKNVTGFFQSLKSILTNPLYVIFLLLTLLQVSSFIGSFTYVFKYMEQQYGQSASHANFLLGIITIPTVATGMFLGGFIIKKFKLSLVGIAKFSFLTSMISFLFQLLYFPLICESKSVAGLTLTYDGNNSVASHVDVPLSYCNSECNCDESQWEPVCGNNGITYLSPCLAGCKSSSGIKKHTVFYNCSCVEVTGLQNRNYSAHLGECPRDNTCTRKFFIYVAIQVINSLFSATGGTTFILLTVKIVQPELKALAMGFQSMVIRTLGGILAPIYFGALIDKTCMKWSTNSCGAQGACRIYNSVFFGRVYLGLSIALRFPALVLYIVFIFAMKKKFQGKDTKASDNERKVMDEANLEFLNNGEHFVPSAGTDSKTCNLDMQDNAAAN

Row | SMILES | residual activity [1] [%] | residual activity [2] [%]
1 | CCCCCCc1ccc(O)cc1O.Nc1c2ccccc2nc2ccccc12 [ACRISORCIN] | 70.31 | 120.2
2 | Nc1nc2c(ncn2COCCO)c(=O)[nH]1 [ACYCLOVIR] | 103.4 | 105.5
3 | Nc1ncnc2nc[nH]c12 [ADENINE] | 90.14 | 81.98
4 | Nc1ncnc2c1ncn2[C@@H]1O[C@H](COP(=O)(O)O)[C@@H](O)[C@H]1O [ADENOSINE PHOSPHATE] | 91.52 | 90.72
5 | CCN(CC)CCOC(=O)C(c1ccccc1)c1ccccc1.Cl [ADIPHENINE HYDROCHLORIDE] | 59.48 | 95.82
6 | CC(=O)NC(Cc1ccccc1)C(=O)O (stereo not drawn) [AFALANINE] | 114.2 | 112.5
7 | CC1=CCCC2C1(C)CCC(C)C2(C)CC/C(C)=C/Cn1c[n+](C)c2c(N)ncnc21 (stereo not drawn) [AGELASINE (stereochemistry of diterpene unknown)] | 56.98 | 93.91
8 | N=C(N)NCCCCN.O=S(=O)(O)O [AGMATINE SULFATE] | 111.9 | 110
9 | CC[C@H]1[C@@H]2C[C@H]3[C@@H]4N(C)c5ccccc5[C@]45C[C@@H]([C@@H]2[C@H]5O)N3[C@@H]1O [AJMALINE] | 34.58 | 91.52
10 | CC[C@@]1(O)C[C@H](O[C@H]2C[C@H](N(C)C)[C@H](O)[C@H](C)O2)c2c(cc3c(c2O)C(=O)c2c(O)cccc2C3=O)[C@H]1C(=O)OC.Cl [AKLAVINE HYDROCHLORIDE] | 70.22 | 83.91
11 | NC(=O)c1ccc([N+](=O)[O-])cc1Cl [AKLOMIDE] | 115.5 | 100.2
12 | CCc1cccc(CC)c1N(COC)C(=O)CCl [ALACHLOR] | 103.5 | 105
13 | CC(N)C(=O)OC(C)(C)Cc1ccc(Cl)cc1 (stereo not drawn) [ALAPROCLATE] | 84.52 | 98.54
14 | CCCSc1ccc2nc(NC(=O)OC)[nH]c2c1 [ALBENDAZOLE] | 102.7 | 95.9
15 | NC(=O)NCC(N)C(=O)O (stereo not drawn) [ALBIZZIINE] | 118.1 | 110.8
16 | CNC(=O)O/N=C/C(C)(C)SC [ALDICARB] | 120.5 | 80.05
17 | ClC1=C(Cl)C2(Cl)C3C4C=CC(C4)C3C1(Cl)C2(Cl)Cl (stereo not drawn) [ALDRIN] | 121.9 | 124.9
18 | NC(=O)NC1NC(=O)NC1=O (stereo not drawn) [ALLANTOIN] | 67.4 | 86.17
19 | Oc1ncnc2[nH]ncc12 [ALLOPURINOL] | 68.8 | 84.36
20 | O=C1NC(=O)C(=O)C(=O)N1 [ALLOXAN] | 118.2 | 108.5
21 | CN(C)CCc1c[nH]c2ccc(CS(=O)(=O)N3CCCC3)cc12 [ALMOTRIPTAN] | 95.85 | 94.33
22 | O=C1c2c(O)cccc2C([C@@H]2O[C@H](CO)[C@@H](O)[C@H](O)[C@H]2O)c2cc(CO)cc(O)c21 (stereo partly drawn) [ALOIN] | 48.46 | 66.8
23 | C/C1=C\CC/C(C)=C/CC(C)(C)/C=C/C1 [ALPHA-HUMULONE] | 112.4 | 109.1
24 | C=CCc1ccccc1OCC(O)CNC(C)C (stereo not drawn) [ALPRENOLOL] | 89.01 | 120.6
25 | C=CCSCC1Nc2cc(Cl)c(S(N)(=O)=O)cc2S(=O)(=O)N1 (stereo not drawn) [ALTHIAZIDE] | 107.1 | 95.11

Row | SMILES | residual activity [1] [%] | residual activity [2] [%]
26 | CCN(CCCc1ccccc1)CCCc1ccccc1.O=C(O)CC(O)(CC(=O)O)C(=O)O [ALVERINE CITRATE] | 48.34 | 74.4
27 | COc1c2c(cc3c1OCO3)[C@]13C=C[C@H](OC)C[C@H]1N(C2)C[C@@H]3O [AMBELLINE] | 91.95 | 88.47
28 | CC(=O)OCC(=O)[C@@]12OC3(CCCC3)O[C@@H]1C[C@H]1[C@@H]3CCC4=CC(=O)C=C[C@]4(C)[C@@]3(F)[C@@H](O)C[C@@]12C [AMCINONIDE] | 35.76 | 56.58
29 | Cl.N=C(N)NC(=O)c1nc(Cl)c(N)nc1N.O.O [AMILORIDE HYDROCHLORIDE] | 51.46 | 65.11
30 | Nc1c2ccccc2nc2ccccc12 [AMINACRINE] | 54.19 | 80.82
31 | Nc1ccc(C(=O)O)cc1 [AMINOBENZOIC ACID] | 85.02 | 88.18
32 | CN1[C@@H]2CC[C@H]1C[C@@H](OC(c1ccccc1)c1ccccc1N)C2 (stereo partly drawn) [AMINOBENZTROPINE] | 75.33 | 77.23
33 | CCC1(c2ccc(N)cc2)CCC(=O)NC1=O (stereo not drawn) [AMINOGLUTETHIMIDE] | 52.33 | 77
34 | Nc1ccc(C(=O)NCC(=O)O)cc1 [AMINOHIPPURIC ACID] | 82.43 | 94.72
35 | Cl.NCC(=O)CCC(=O)O [AMINOLEVULINIC ACID HYDROCHLORIDE] | 84.34 | 89.23
36 | Nc1nc(N)c2nc(CNc3ccc(C(=O)N[C@@H](CCC(=O)O)C(=O)O)cc3)cnc2n1 [AMINOPTERIN] | 89.56 | 124.5
37 | Nc1ccc(C(=O)[O-])c(O)c1.O.O.[Na+] [AMINOSALICYLATE SODIUM] | 75.75 | 88.86
38 | Nc1nccs1 [AMINOTHIAZOLE] | 92.13 | 76.59
39 | CN(C)CCCO[C@@H]1[C@H]2OC(C)(C)O[C@H]2O[C@@H]1[C@H](O)CO [AMIPRILOSE] | 91.07 | 95.1
40 | Cc1ccc(/N=C/N(C)/C=N/c2ccc(C)cc2C)c(C)c1 [AMITRAZ] | 108.2 | 87.86
41 | CN(C)CCC=C1c2ccccc2CCc2ccccc21.Cl [AMITRIPTYLINE HYDROCHLORIDE] | 53.22 | 80.45
42 | Clc1ccc2c(c1)C(N1CCNCC1)=Nc1ccccc1O2 [AMOXAPINE] | 115.8 | 101.5
43 | C[C@@H]1[C@H](O)[C@@H](C)/C=C/C=C/C=C/C=C/C=C/C=C/C=C/[C@H](O[C@@H]2O[C@H](C)[C@@H](O)[C@H](N)[C@@H]2O)C[C@@H]2O[C@](O)(C[C@@H](O)C[C@@H](O)[C@H](O)CC[C@@H](O)C[C@@H](O)CC(=O)O[C@H]1C)C[C@H](O)[C@H]2C(=O)O [AMPHOTERICIN B] | 89.01 | 99.53
44 | CC1(C)S[C@@H]2[C@H](NC(=O)[C@H](N)c3ccccc3)C(=O)N2[C@H]1C(=O)[O-].[Na+] [AMPICILLIN SODIUM] | 76.76 | 88.9
45 | CCCc1ncc(C[n+]2ccccc2C)c(N)n1 [AMPROLIUM ION] | 67.38 | 78.02
46 | N#C[C@H](O[C@@H]1O[C@H](CO[C@@H]2O[C@H](CO)[C@@H](O)[C@H](O)[C@H]2O)[C@@H](O)[C@H](O)[C@H]1O)c1ccccc1 [AMYGDALIN] | 118.1 | 103.6
47 | CN1CCCCC1c1ccc(-c2cccnc2)nc1.Cl (stereo not drawn) [ANABASAMINE HYDROCHLORIDE] | 100 | 108.2
48 | Cl.c1cncc([C@@H]2CCCCN2)c1 [ANABASINE HYDROCHLORIDE] | 83.96 | 91.54
49 | Cl.N=c1ccn2c(n1)O[C@H]1[C@H](O)[C@@H](CO)O[C@H]12 [ANCITABINE HYDROCHLORIDE] | 68.78 | 66.03
